Measurements: article PMC3348135, “Identification of New Agonists and Antagonists of the Insect Odorant Receptor Co-Receptor Subunit” (PLoS ONE, 2012)

Tests used:
Dmel\Orco + Dmel\Or35a [1] = target: T1, Dmel\Orco + Dmel\Or35a (Drosophila melanogaster, UniProt Q9VNB5); assay: Inhibition of OLC12 activation of Dmel\Orco + Dmel\Or35a in Xenopus oocytes; type: cell-based; conditions: activated by 10 µM OLC12 (EC25); read-out: IC50, Dmel\Orco + Dmel\Or35a (activated by 10 µM OLC12)
T1 construct: expressed in transfected cells; host or cells: Xenopus laevis oocytes (cRNA injection, pGEMHE)
T1 sequence (Q9VNB5 1-486): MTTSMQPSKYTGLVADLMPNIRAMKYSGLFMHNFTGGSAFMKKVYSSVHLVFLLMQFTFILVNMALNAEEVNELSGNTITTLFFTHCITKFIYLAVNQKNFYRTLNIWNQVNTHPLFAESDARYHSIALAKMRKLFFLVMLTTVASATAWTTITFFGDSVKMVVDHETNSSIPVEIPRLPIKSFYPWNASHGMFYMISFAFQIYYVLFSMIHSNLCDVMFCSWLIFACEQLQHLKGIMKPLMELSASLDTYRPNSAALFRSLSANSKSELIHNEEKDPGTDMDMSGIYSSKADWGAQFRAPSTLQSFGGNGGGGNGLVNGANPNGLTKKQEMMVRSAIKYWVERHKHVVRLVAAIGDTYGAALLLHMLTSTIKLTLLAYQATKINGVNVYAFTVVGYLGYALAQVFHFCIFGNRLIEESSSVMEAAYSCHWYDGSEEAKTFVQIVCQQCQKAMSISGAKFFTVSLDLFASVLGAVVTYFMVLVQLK
T1 sequence (Q9V3Q2 1-409 partner): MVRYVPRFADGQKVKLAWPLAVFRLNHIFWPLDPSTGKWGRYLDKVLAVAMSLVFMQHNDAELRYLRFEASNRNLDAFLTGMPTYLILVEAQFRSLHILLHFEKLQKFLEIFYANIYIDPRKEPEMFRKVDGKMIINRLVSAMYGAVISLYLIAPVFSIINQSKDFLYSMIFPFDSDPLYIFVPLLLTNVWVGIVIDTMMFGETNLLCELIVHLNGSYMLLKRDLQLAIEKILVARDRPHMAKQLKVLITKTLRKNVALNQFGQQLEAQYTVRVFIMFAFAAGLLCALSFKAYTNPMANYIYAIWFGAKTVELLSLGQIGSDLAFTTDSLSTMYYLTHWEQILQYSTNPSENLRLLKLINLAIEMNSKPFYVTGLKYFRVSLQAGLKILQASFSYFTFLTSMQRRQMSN
Method: (§1) Oocytes were surgically removed from mature Xenopus laevis frogs. Follicle cells were removed by treatment with Collagenase B (Boehringer Mannhem) for 2 hours at room temperature. Capped cRNA encoding each DmOR subunit was generated using mMessage mMachine kits (Ambion). For heteromeric ORs, 25 ng of cRNA encoding each OR subunit was injected into Stage V-VI Xenopus oocytes. For expression of Orco alone, 50 ng of cRNA was injected. Oocytes were incubated at 18°C in Barth’s saline (in mM: 88 NaCl, 1 KCl, 2.4 NaHCO3, 0.3 CaNO3, 0.41 CaCl2, 0.82 MgSO4, 15 HEPES, pH 7.6, and 150 µg/ml ceftazidime) for 2–5 days prior to electrophysiological recording.
(§2) Odorant and Orco ligand induced currents were recorded under two-electrode voltage clamp in Xenopus laevis oocytes expressing ORs, using an automated parallel electrophysiology system (OpusExpress 6000A; Molecular Devices). Oocytes were perfused with ND96 (in mM: 96 NaCl, 2 KCl, 1 CaCl2, 1 MgCl2, 5 HEPES, pH 7.5). Odorant stock solutions (0.5 or 1 M) and Orco ligand stock solutions (100 mM) were prepared in DMSO and diluted in ND96. Unless otherwise noted, applications were for 60 sec at a flow rate of 1.0 ml/min, with extensive washing in ND96 (9 or 20 min at 4.6 ml/min) between applications. Micropipettes were filled with 3 M KCl and had resistances of 0.2−2.0 MΩ. The holding potential was −70 mV. Current responses, filtered (4-pole, Bessel, low pass) at 20 Hz (−3 db) and sampled at 100 Hz, were captured and stored using OpusXpress 1.1 software (Molecular Devices).
(§3) In inhibition assays, oocytes were exposed to 60 sec applications of OLC12 with 9 min washes between applications (Fig. 3 and 4) or 60 sec applications of odorant with 20 min washes between applications (Fig. 5). Oocytes were then exposed to a 90 sec application of antagonist candidate, immediately followed by a 60 sec co-application of antagonist candidate and OLC12 or odorant. Oocytes were then exposed to a final 60 sec application of OLC12 or odorant. The current response in the presence of antagonist candidate was compared to the preceding response(s) to OLC12 (or odorant) alone.
(§4) Initial analysis of electrophysiological data was done using Clampfit 9.1 software (Molecular Devices). Curve fitting and statistical analyses were done using Prism 5 (Graphpad). Concentration-response data were fit to the equation: I = Imax/(1+(EC50/X)^n) where I represents the current response at a given concentration of odorant, X; Imax is the maximal response; EC50 is the concentration of agonist yielding a half maximal response; n is the apparent Hill coefficient. Concentration-inhibition data were fit to the equation: I = Imax/(1+(X/IC50)^n) where I represents the current response at a given concentration of inhibitor, X; Imax is the maximal response in the absence of inhibitor; IC50 is the concentration of inhibitor present that still allows a half maximal response from odorant; n is the apparent Hill coefficient. Statistical significance was assessed using a two-tailed unpaired t test, an F test, or a one-way analysis of variance followed by the Bonferroni’s post-test, as appropriate.

Cqui\Orco = assay: Agonist activation of homomeric Cqui\Orco in Xenopus oocytes, two-electrode voltage clamp; type: cell-based, Culex quinquefasciatus; conditions: 100 µM compound; mean ± SEM, n=3-8
Onub\Orco + Onub\Or1 = assay: Agonist activation of Onub\Orco + Onub\Or1 in Xenopus oocytes, two-electrode voltage clamp; type: cell-based, Ostrinia nubilalis; conditions: 100 µM compound; mean ± SEM, n=3-8
Dmel\Orco + Dmel\Or35a [2] = target: T1, Dmel\Orco + Dmel\Or35a; assay: Agonist activation of Dmel\Orco + Dmel\Or35a in Xenopus oocytes, two-electrode voltage clamp; type: cell-based; conditions: for Emax at 100 µM: read-out: Response amplitude as percentage of response to 100 µM OLC3, Dmel\Orco + Dmel\Or35a; for Response amplitude as percentage of response to 100 µM OLC3, Dmel\Orco + Dmel\Or35a: 100 µM compound, mean ± SEM, n=3-8
Method: as §1, §2, §4

Dmel\Orco [3] = target: T2, Dmel\Orco (Drosophila melanogaster, UniProt Q9VNB5); assay: Agonist activation of homomeric Dmel\Orco in Xenopus oocytes, two-electrode voltage clamp; type: cell-based; conditions: for Emax at 100 µM: read-out: Response amplitude as percentage of response to 100 µM OLC3, Dmel\Orco; for Response amplitude as percentage of response to 100 µM OLC3, Dmel\Orco: 100 µM compound, mean ± SEM, n=3-8
T2 construct: expressed in transfected cells; host or cells: Xenopus laevis oocytes (cRNA injection, pGEMHE)
T2 sequence (Q9VNB5 1-486): T1 sequence (Q9VNB5 1-486)
Method: as §1, §2, §4

Dmel\Orco [4] = target: T2, Dmel\Orco; assay: Inhibition of OLC12 activation of Dmel\Orco in Xenopus oocytes; type: cell-based; conditions: for IC50: activated by 30 µM OLC12 (EC39)
Method: as §1, §2, §3, §4

Cqui\Orco + Cqui\Or10 = Cqui\Orco + Cqui\Or10 (Culex quinquefasciatus, UniProt D5LMR7+Q309I4); assay: Activation of Cqui\Orco + Cqui\Or10 in Xenopus oocytes, two-electrode voltage clamp; type: cell-based; conditions: 100 µM compound, mean ± SEM, n=3-8; for Emax at 100 µM: read-out: Response amplitude as percentage of response to 100 µM OLC3, Cqui\Orco + Cqui\Or10
Method: as §1, §2, §4

Chain of Cqui\Orco + Cqui\Or10 (D5LMR7 entry or part of it): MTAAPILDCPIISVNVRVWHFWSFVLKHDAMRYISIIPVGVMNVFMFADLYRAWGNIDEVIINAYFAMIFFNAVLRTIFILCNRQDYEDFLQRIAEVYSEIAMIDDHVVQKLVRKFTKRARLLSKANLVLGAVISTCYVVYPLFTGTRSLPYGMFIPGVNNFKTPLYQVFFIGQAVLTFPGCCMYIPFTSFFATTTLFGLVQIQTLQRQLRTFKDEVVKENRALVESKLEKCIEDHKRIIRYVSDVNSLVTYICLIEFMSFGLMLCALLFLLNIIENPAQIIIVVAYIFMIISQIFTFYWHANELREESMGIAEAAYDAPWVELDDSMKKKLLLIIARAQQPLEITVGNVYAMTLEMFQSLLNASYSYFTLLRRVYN
Chain of Cqui\Orco + Cqui\Or10 (Q309I4 entry or part of it): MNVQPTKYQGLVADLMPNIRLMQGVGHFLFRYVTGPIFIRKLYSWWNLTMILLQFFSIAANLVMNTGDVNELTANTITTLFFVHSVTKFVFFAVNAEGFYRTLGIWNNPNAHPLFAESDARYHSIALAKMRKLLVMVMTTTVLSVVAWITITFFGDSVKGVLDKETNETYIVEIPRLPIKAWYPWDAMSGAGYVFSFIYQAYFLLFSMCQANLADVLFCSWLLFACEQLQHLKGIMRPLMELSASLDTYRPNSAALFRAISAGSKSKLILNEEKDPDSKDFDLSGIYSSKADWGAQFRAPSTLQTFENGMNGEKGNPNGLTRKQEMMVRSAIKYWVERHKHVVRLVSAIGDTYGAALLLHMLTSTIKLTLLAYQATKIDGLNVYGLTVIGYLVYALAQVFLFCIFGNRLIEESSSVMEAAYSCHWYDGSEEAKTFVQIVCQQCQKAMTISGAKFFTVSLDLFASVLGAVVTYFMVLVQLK

CCCCc1ccc(NC(=O)CSc2nnc(-c3cccnc3)n2CC)cc1 [OLC9]
IC50 (Dmel\Orco + Dmel\Or35a [1]): 40 ± 9 µM | Response amplitude as percentage of response to 100 µM OLC3, Cqui\Orco (Cqui\Orco): 0% | Response amplitude as percentage of response to 100 µM OLC3, Onub\Orco + Onub\Or1 (Onub\Orco + Onub\Or1): 3 ± 1% | Emax at 100 µM (Dmel\Orco + Dmel\Or35a [2]): 5 ± 2% | Emax at 100 µM (Dmel\Orco [3]): 0% | IC50 (Dmel\Orco [4]): 69 ± 7 µM | Emax at 100 µM (Cqui\Orco + Cqui\Or10): 0%

Cc1nnc(-c2ccccn2)[nH]1 [OLC23]
Response amplitude as percentage of response to 100 µM OLC3, Cqui\Orco (Cqui\Orco): 0% | Response amplitude as percentage of response to 100 µM OLC3, Dmel\Orco + Dmel\Or35a (Dmel\Orco + Dmel\Or35a [2]): 0% | Response amplitude as percentage of response to 100 µM OLC3, Dmel\Orco (Dmel\Orco [3]): 0% | Response amplitude as percentage of response to 100 µM OLC3, Cqui\Orco + Cqui\Or10 (Cqui\Orco + Cqui\Or10): 8 ± 3%

CCn1c(SCC(=O)Nc2ccc(Cl)cc2)nnc1-c1cccnc1 [OLC11]
Response amplitude as percentage of response to 100 µM OLC3, Cqui\Orco (Cqui\Orco): 0% | Response amplitude as percentage of response to 100 µM OLC3, Dmel\Orco + Dmel\Or35a (Dmel\Orco + Dmel\Or35a [2]): 13 ± 2% | Response amplitude as percentage of response to 100 µM OLC3, Dmel\Orco (Dmel\Orco [3]): 0% | Response amplitude as percentage of response to 100 µM OLC3, Cqui\Orco + Cqui\Or10 (Cqui\Orco + Cqui\Or10): 13 ± 3%

CCc1ccc(NC(C)=O)cc1 [OLC19]
Response amplitude as percentage of response to 100 µM OLC3, Cqui\Orco (Cqui\Orco): 3 ± 2% | Response amplitude as percentage of response to 100 µM OLC3, Dmel\Orco + Dmel\Or35a (Dmel\Orco + Dmel\Or35a [2]): 0% | Response amplitude as percentage of response to 100 µM OLC3, Dmel\Orco (Dmel\Orco [3]): 0% | Response amplitude as percentage of response to 100 µM OLC3, Cqui\Orco + Cqui\Or10 (Cqui\Orco + Cqui\Or10): 0%

Cn1cnnc1-c1ccncc1 [OLC18]
Response amplitude as percentage of response to 100 µM OLC3, Cqui\Orco (Cqui\Orco): 0% | Response amplitude as percentage of response to 100 µM OLC3, Dmel\Orco + Dmel\Or35a (Dmel\Orco + Dmel\Or35a [2]): 0% | Response amplitude as percentage of response to 100 µM OLC3, Dmel\Orco (Dmel\Orco [3]): 0% | Response amplitude as percentage of response to 100 µM OLC3, Cqui\Orco + Cqui\Or10 (Cqui\Orco + Cqui\Or10): 0%

CCCCc1ccc(NC(=O)c2cccs2)cc1 [OLC22]
IC50 (Dmel\Orco + Dmel\Or35a [1]): 26 ± 4 µM | Response amplitude as percentage of response to 100 µM OLC3, Cqui\Orco (Cqui\Orco): 0% | Emax at 100 µM (Dmel\Orco + Dmel\Or35a [2]): 0% | Emax at 100 µM (Dmel\Orco [3]): 0% | IC50 (Dmel\Orco [4]): 52 ± 18 µM | Emax at 100 µM (Cqui\Orco + Cqui\Or10): 0%

CCn1c(SCC(=O)Nc2cccc(C)c2)nnc1-c1cccnc1 [OLC6]
Response amplitude as percentage of response to 100 µM OLC3, Cqui\Orco (Cqui\Orco): 4 ± 2% | Response amplitude as percentage of response to 100 µM OLC3, Onub\Orco + Onub\Or1 (Onub\Orco + Onub\Or1): 0% | Response amplitude as percentage of response to 100 µM OLC3, Dmel\Orco + Dmel\Or35a (Dmel\Orco + Dmel\Or35a [2]): 0% | Response amplitude as percentage of response to 100 µM OLC3, Dmel\Orco (Dmel\Orco [3]): 0% | Response amplitude as percentage of response to 100 µM OLC3, Cqui\Orco + Cqui\Or10 (Cqui\Orco + Cqui\Or10): 0%

C=CCn1c(S)nnc1-c1cccnc1 [OLC17]
Response amplitude as percentage of response to 100 µM OLC3, Cqui\Orco (Cqui\Orco): 3 ± 2% | Response amplitude as percentage of response to 100 µM OLC3, Dmel\Orco + Dmel\Or35a (Dmel\Orco + Dmel\Or35a [2]): 0% | Response amplitude as percentage of response to 100 µM OLC3, Dmel\Orco (Dmel\Orco [3]): 0% | Response amplitude as percentage of response to 100 µM OLC3, Cqui\Orco + Cqui\Or10 (Cqui\Orco + Cqui\Or10): 0%

CCc1ccccc1NC(=O)CSc1nnc(-c2cccnc2)n1CC [OLC8]
Response amplitude as percentage of response to 100 µM OLC3, Cqui\Orco (Cqui\Orco): 5 ± 3% | Response amplitude as percentage of response to 100 µM OLC3, Onub\Orco + Onub\Or1 (Onub\Orco + Onub\Or1): 0% | Response amplitude as percentage of response to 100 µM OLC3, Dmel\Orco + Dmel\Or35a (Dmel\Orco + Dmel\Or35a [2]): 0% | Response amplitude as percentage of response to 100 µM OLC3, Dmel\Orco (Dmel\Orco [3]): 0% | Inhibition of activation of Dmel\Orco by 30 µM OLC12 on co-application (Dmel\Orco [4]; 100 µM compound co-applied with 30 µM OLC12): fails to block | Response amplitude as percentage of response to 100 µM OLC3, Cqui\Orco + Cqui\Or10 (Cqui\Orco + Cqui\Or10): 0%
